For data set [1], the system named is Tamiflu-resistant 2009 pandemic influenza A (H1N1) virus (H275Y mutation in neuraminidase). Briefly: in vitro. To be noted: dog, SI (selective index = CC50/EC50).
The next data set in a line: in vitro. Particulars: dog, CC50 (μM).
The test system of data set [2] is Tamiflu-resistant 2009 pandemic influenza A (H1N1) virus (H275Y mutation in neuraminidase). Particulars: for SI (selective index = CC50/EC50), H1N1 Tamiflu-resistant: dog.
The subject of data set [3] is Madin-Darby canine kidney (MDCK) cells.
The test system of a further data set is H1N1 influenza virus. In words: In vitro anti-H1N1 influenza virus activity (oseltamivir footnote). The format is cell-based.
The mark [4] stands for this setting: read-out: EC50 (μM), H1N1 Tamiflu-resistant.
[5] abbreviates: read-out: EC50 (μM), H1N1 Tamiflu-resistant virus.

Where two headings read alike, the source gives them in different places. A value given as a limit tells only on which side of the number the result lay.

One may read the EC50 as the concentration giving half of the maximal effect.

Turning to `NC(=O)c1ncn([C@@H]2O[C@H](CO)[C@@H](O)[C@H]2O)n1` [Ribavirin, reference compound], the selectivity ratio in data set [1] (H1N1 Tamiflu-resistant) and in data set [1] (H1N1 Tamiflu-resistant virus) was over 11.7 in each case. In “in vitro”, this compound had a CC50 of over 300 µM. Besides, the EC50 in data set [2] (setting [4]) and in data set [2] (setting [5]) was 25.6 µM in each case.

The compound `O=c1cc(-c2ccc(Cl)cc2Cl)oc2cc(O)c(O)c(O)c12` [Compound 3e] gave a CC50 in data set [3] of over 300 µM. The “SI (selective index = CC50/EC50), H1N1 Tamiflu-resistant virus” value in data set [2] is reported as over 4.1. Besides, the EC50 in data set [2] (setting [5]) was 73.7 µM.

In the case of `O=c1cc(-c2ccccc2Br)oc2cc(O)c(O)c(O)c12` [Compound 6a, 2-(2-Bromophenyl)-5,6,7-trihydroxy-4H-chromen-4-one], the selectivity ratio in data set [1] (H1N1 Tamiflu-resistant) and in data set [1] (H1N1 Tamiflu-resistant virus) was over 33.3 each time. The CC50 in the data set “in vitro” was over 300 µM. Further, the EC50 in data set [2] (setting [4]) and in data set [2] (setting [5]) was 9 µM throughout.

For `O=c1cc(-c2cccc(Cl)c2)oc2cc(O)c(O)c(O)c12` [Compound 3c], the CC50 in data set [3] was over 300 µM. Moreover, the “SI (selective index = CC50/EC50), H1N1 Tamiflu-resistant virus” value in data set [2] is recorded as over 6.0. In data set [2] (setting [5]), the EC50 turned out to be 50 µM.

Turning to `COc1c(O)cc2oc(-c3ccc(Br)cc3)cc(=O)c2c1O` [Compound 5c, 2-(4-Bromophenyl)-5,7-dihydroxy-6-methoxy-4H-chromen-4-one], the selectivity ratio in data set [1] (H1N1 Tamiflu-resistant) was over 66.7. The compound also came in with a CC50 in the data set “in vitro” of over 300 µM. For the same compound, the “SI (selective index = CC50/EC50), H1N1 Tamiflu-resistant” value in data set [2] is on record as over 70.0. Also, in data set [2] (setting [4]), the EC50 is 4.3 µM.

In the case of `O=c1cc(-c2ccc(-c3ccccc3)cc2)oc2cc(O)c(O)c(O)c12` [Compound 3i], the CC50 in data set [3] is over 300 µM. Moreover, the “SI (selective index = CC50/EC50), H1N1 Tamiflu-resistant virus” value in data set [2] is given as over 4.2. In addition, the EC50 in data set [2] (setting [5]) turned out to be 72 µM.

As to `O=c1cc(-c2ccc(F)c(Br)c2)oc2cc(O)c(O)c(O)c12` [Compound 3g], in data set [3], the CC50 is over 300 µM. Besides, the “SI (selective index = CC50/EC50), H1N1 Tamiflu-resistant virus” value in data set [2] is over 1.5. Further, the EC50 in data set [2] (setting [5]) is 204 µM.

With `CCOC(=O)C1=C[C@@H](OC(CC)CC)[C@H](NC(C)=O)[C@@H](N)C1` [oseltamivir, reference compound], the EC50 in the data set on H1N1 influenza virus turned out to be 32 µM. Besides, the “activity against H1N1 Tamiflu-resistant virus” value in data set [2] is “void of activity”.

For the compound `COc1c(O)cc2oc(-c3ccccc3Br)cc(=O)c2c1O` [Compound 5a, 2-(2-Bromophenyl)-5,7-dihydroxy-6-methoxy-4H-chromen-4-one], the selectivity ratio in data set [1] (H1N1 Tamiflu-resistant) was over 34.9. The compound also showed a CC50 in the data set “in vitro” of over 300 µM. Besides, the EC50 in data set [2] (setting [4]) amounted to 8.6 µM.

For the compound `COc1cc2oc(-c3cccc(Br)c3)cc(=O)c2c(OC)c1OC` [Compound 2l, 2-(3-Bromophenyl)-5,6,7-trimethoxy-4H-chromen-4-one], in data set [1] (H1N1 Tamiflu-resistant), the selectivity ratio is over 8. This compound also registered a CC50 in the data set “in vitro” of 32.1 µM. In addition, in data set [2] (setting [4]), the EC50 is 4 µM.

`O=c1cc(-c2ccccc2)oc2cc(O)c(O)c(O)c12` [Compound 3a] came in with a CC50 in data set [3] of over 300 µM. The EC50 in data set [2] (setting [5]) came out at 92.3 µM.

As for `O=C(O)[C@H]1O[C@@H](Oc2cc3oc(-c4ccccc4)cc(=O)c3c(O)c2O)[C@H](O)[C@@H](O)[C@@H]1O` [Baicalin, reference compound], in data set [1] (H1N1 Tamiflu-resistant), the selectivity ratio is over 4.3. The compound further returned a CC50 in the data set “in vitro” of over 300 µM. Besides, the EC50 in data set [2] (setting [4]) is 69.3 µM.

Turning to `COc1c(O)cc2oc(-c3cccc(Br)c3)cc(=O)c2c1O` [Compound 5b, 2-(3-Bromophenyl)-5,7-dihydroxy-6-methoxy-4H-chromen-4-one], the selectivity ratio in data set [1] (H1N1 Tamiflu-resistant) is over 66.7. Also, in “in vitro”, the CC50 was over 300 µM. Further, the “SI (selective index = CC50/EC50), H1N1 Tamiflu-resistant” value in data set [2] is reported as over 69.8. In addition, the EC50 in data set [2] (setting [4]) was 4.3 µM.

With `O=c1cc(-c2ccccc2)oc2cc(O)c(O)c(O)c12` [Baicalein, reference compound], the selectivity ratio is over 6.5 in data set [1] (H1N1 Tamiflu-resistant) and over 3.3 in data set [1] (H1N1 Tamiflu-resistant virus). In “in vitro”, this compound gave a CC50 of over 300 µM. In addition, in data set [2] (setting [4]), the EC50 turned out to be 46.2 µM.

In the case of `O=c1cc(-c2ccccc2Cl)oc2cc(O)c(O)c(O)c12` [Compound 3b], the CC50 in data set [3] was over 300 µM. The EC50 in data set [2] (setting [5]) turned out to be 10.2 µM.

For the compound `COc1cc2oc(-c3ccccc3Br)cc(=O)c2c(OC)c1OC` [Compound 2k, 2-(2-Bromophenyl)-5,6,7-trimethoxy-4H-chromen-4-one], the selectivity ratio in data set [1] (H1N1 Tamiflu-resistant) is 8. Also, the CC50 in the data set “in vitro” was determined as 128 µM. For the same compound, in data set [2] (setting [4]), the EC50 is 16 µM.

For `COc1cc2oc(-c3ccccc3Br)cc(=O)c2c(O)c1OC` [Compound 4a, 2-(2-Bromophenyl)-5-hydroxy-6,7-dimethoxy-4H-chromen-4-one], the selectivity ratio in data set [1] (H1N1 Tamiflu-resistant) was 8.3. Also, the CC50 in the data set “in vitro” turned out to be 133 µM. Also, the EC50 in data set [2] (setting [4]) was found to be 16.1 µM.

In data set [3], `O=c1cc(-c2ccc([N+](=O)[O-])cc2)oc2cc(O)c(O)c(O)c12` [Compound 3j] had a CC50 of over 300 µM. Besides, the “SI (selective index = CC50/EC50), H1N1 Tamiflu-resistant virus” value in data set [2] is over 16.6. In addition, the EC50 in data set [2] (setting [5]) worked out at 18.1 µM.

For `O=c1cc(-c2ccc(Br)cc2)oc2cc(O)c(O)c(O)c12` [Compound 6c, 2-(4-Bromophenyl)-5,6,7-trihydroxy-4H-chromen-4-one], the selectivity ratio in data set [1] (H1N1 Tamiflu-resistant) and in data set [1] (H1N1 Tamiflu-resistant virus) was over 66.7 throughout. Besides, in “in vitro”, the CC50 is over 300 µM. Further, the “SI (selective index = CC50/EC50), H1N1 Tamiflu-resistant” value in data set [2] is given as over 66.7. Besides, the EC50 in data set [2] (setting [4]) and in data set [2] (setting [5]) was 4.5 µM throughout.

Take `COc1cc2oc(-c3ccc(Br)cc3)cc(=O)c2c(O)c1OC` [Compound 4c, 2-(4-Bromophenyl)-5-hydroxy-6,7-dimethoxy-4H-chromen-4-one]: the selectivity ratio in data set [1] (H1N1 Tamiflu-resistant) was over 66.7. Moreover, the CC50 in the data set “in vitro” is over 300 µM. Moreover, the “SI (selective index = CC50/EC50), H1N1 Tamiflu-resistant” value in data set [2] is over 71.4. The EC50 in data set [2] (setting [4]) is 4.2 µM.

For `COc1cc2oc(-c3ccc(Br)cc3)cc(=O)c2c(OC)c1OC` [Compound 2m, 2-(4-Bromophenyl)-5,6,7-trimethoxy-4H-chromen-4-one], in data set [1] (H1N1 Tamiflu-resistant), the selectivity ratio was 0.7. In the data set “in vitro”, this compound gave a CC50 of 128 µM. Also, the EC50 in data set [2] (setting [4]) is 192 µM.

Take `O=c1cc(-c2ccc(Cl)cc2)oc2cc(O)c(O)c(O)c12` [Compound 3d]: the CC50 in data set [3] was over 300 µM. In data set [2] (setting [5]), the EC50 stood at 10.2 µM.

Take `O=c1cc(-c2cccc(Br)c2)oc2cc(O)c(O)c(O)c12` [Compound 6b, 2-(3-Bromophenyl)-5,6,7-trihydroxy-4H-chromen-4-one]: the selectivity ratio in data set [1] (H1N1 Tamiflu-resistant) and in data set [1] (H1N1 Tamiflu-resistant virus) was over 66.7 each time. Also, the CC50 in “in vitro” is over 300 µM. Also, the “SI (selective index = CC50/EC50), H1N1 Tamiflu-resistant” value in data set [2] is listed as over 66.7. Further, the EC50 in data set [2] (setting [4]) and in data set [2] (setting [5]) was 4.5 µM each time.

Compound `O=C(O)c1ccc(-c2cc(=O)c3c(O)c(O)c(O)cc3o2)cc1` [Compound 3h] registered a CC50 in data set [3] of over 300 µM. Further, the “SI (selective index = CC50/EC50), H1N1 Tamiflu-resistant virus” value in data set [2] is listed as over 7.6. Besides, the EC50 in data set [2] (setting [5]) amounted to 39.7 µM.

Take `COc1cc2oc(-c3cccc(Br)c3)cc(=O)c2c(O)c1OC` [Compound 4b, 2-(3-Bromophenyl)-5-hydroxy-6,7-dimethoxy-4H-chromen-4-one]: the selectivity ratio in data set [1] (H1N1 Tamiflu-resistant) was over 15.8. Further, the CC50 in the data set “in vitro” came to 66.5 µM. Further, the EC50 in data set [2] (setting [4]) was found to be 4.2 µM.

These data come from US20150329515A1, “COMPOSITION AND METHOD FOR TREATING OR PREVENTING INFLUENZA VIRUS INFECTION” (National Defense Medical Center, priority 2014, published 2015).
